In US20230338297A1, “Encapsulated Agents that Bind to MCT-1” (THE JOHNS HOPKINS UNIVERSITY, priority 2020, published 2023):

What was measured:
MCT-1 = target: T1, MCT-1 (Homo sapiens, UniProt P53985); type: cell-based
T1 construct: endogenous in cells
T1 sequence (P53985 1-500): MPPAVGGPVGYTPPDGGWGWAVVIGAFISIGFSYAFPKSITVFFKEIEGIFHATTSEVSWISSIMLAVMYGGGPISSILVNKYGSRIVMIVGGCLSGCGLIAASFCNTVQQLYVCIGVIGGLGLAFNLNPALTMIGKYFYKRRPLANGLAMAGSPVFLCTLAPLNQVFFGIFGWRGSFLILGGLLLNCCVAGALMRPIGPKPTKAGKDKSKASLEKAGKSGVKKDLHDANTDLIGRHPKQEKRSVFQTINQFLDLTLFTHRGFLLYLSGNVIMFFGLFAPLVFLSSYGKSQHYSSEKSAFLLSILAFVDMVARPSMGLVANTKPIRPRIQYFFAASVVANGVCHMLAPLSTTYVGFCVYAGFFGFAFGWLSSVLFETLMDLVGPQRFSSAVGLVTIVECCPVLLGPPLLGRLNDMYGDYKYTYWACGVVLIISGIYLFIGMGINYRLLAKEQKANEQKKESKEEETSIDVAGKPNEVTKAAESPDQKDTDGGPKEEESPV
T1 sequence (P35613 140-385 partner limits assumed): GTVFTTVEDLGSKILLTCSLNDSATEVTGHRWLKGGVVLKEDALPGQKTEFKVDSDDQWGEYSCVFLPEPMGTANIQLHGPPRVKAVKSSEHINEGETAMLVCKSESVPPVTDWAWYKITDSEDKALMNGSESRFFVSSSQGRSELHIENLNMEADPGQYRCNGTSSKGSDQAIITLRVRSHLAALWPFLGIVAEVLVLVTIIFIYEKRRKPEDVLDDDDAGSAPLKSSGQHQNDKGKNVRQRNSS
Text: To gain insight into this lack of sensitivity, the expression levels of three cell surface channels, GLUT-1 (Yu, M. et al. The prognostic value of GLUT1 in cancers: a systematic review and meta-analysis. Oncotarget 8, 43356-43367, doi:10.18632/oncotarget.17445 (2017)), MCT-1 and MCT-4 (Hong, C. S. et al. MCT1 Modulates Cancer Cell Pyruvate Export and Growth of Tumors that Co-express MCT1 and MCT4. Cell Reports 14, 1590-1601, doi:10.1016/j.celrep.2016.01.057 (2016)) were compared in all 7 pancreatic cancer cell lines using RNA expression atlas (FIG. 4A). While neither GLUT1 (primarily responsible for glucose uptake and therefore, the FDG-PET positive phenotype) nor MCT-4 expression levels of CFPAC-1 were lower than other cell lines in the panel, expression levels of MCT-1 in CFPAC-1 (22 TPM) was nearly three-fold lower than the next lowest expressor (BxPC-3, 64 TPM) in the cell line panel (FIG. 4B). […]

[1] = stability of CD-3BP complexes and free 3BP in sera, residual 3BP by cell toxicity assay (HCT-116); type: in vitro ADME, human; settings: incubated with sera at 37° C. for up to 8 hours
Text: However, how microencapsulation in CD alters the solubility and stability of 3BP and whether chemical modifications of CDs can alter physicochemical characteristics of the drug remains unclear. To address these questions and clarify the biological effect of microencapsulation, an assay was designed to estimate the stability of various CD-3BP complexes when compared to free 3BP in human sera.
Two different types of complexes, the previously used sCD-3BP (Chapiro, J. et al., Clinical cancer research: An official journal of the American Association for Cancer Research 20, 6406-6417, doi:10.1158/1078-0432.ccr-14-1271 (2014)) and newly generated HPCD-3BP were compared side-by-side. […] Aliquots were collected at various time points and assessed for residual 3BP by a cell toxicity assay. […]
Free 3BP, sCD-3BP and HPCD-3BP were incubated at various concentrations (12.5 μM, 25 μM, 50 μM, 100 μM and 200 μM) with 90 μL of mouse sera at 37° C. for up to 8 hours. […] Un-degraded biologically active 3BP at each time was then assessed by a cell toxicity assay. […] Cell death was measured by imaging cells after 72 hours using the IncuCyte® Live Cell-Analysis System (Essen Bioscience) and using the CellTox™ Green Cytotoxicity Assay (Promega), following the manufacturer's recommendation. […]

DLD-1 parental cells = assay: effect of MCT-1 loss on sensitivity: DLD-1 parental cells; type: cell-based, human; settings: 0-200 uM
Method: (§1) The Alt-R CRISPR system (Integrated DNA Technologies, IDT) was used to delete SLC16A1, the gene encoding for the MCT-1 protein, in the DLD-1 and MiaPaCa-2 cell lines. The gRNA sequence was designed using CHOPCHOP v.3 12. Briefly, Alt-R CRISPR Cas9 crRNAs ([…], IDT; SEQ ID NO:1) and Alt-R CRISPR-Cas9 tracrRNA (1072532, IDT) were re-suspended at 100 μM with Nuclease-Free Duplex Buffer (IDT). The crRNAs and tracrRNA were mixed at a 1:1 molar ratio and denatured for 5 min at 95° C., followed by slow cooling to room temperature to duplex prior to mixing with Cas9 Nuclease (1081059, IDT) at a 1.2:1 molar ratio for 15 min. Forty pmoles of the Cas9 ribonucleoprotein (RNP) containing tracrRNA/MCT-1 crRNA duplex were mixed with 2×10^5 DLD-1 cells in 20 μL of OptiMEM (31985088, ThermoFisher Scientific). This mixture was loaded into a 0.1 cm cuvette (1652089, Bio Rad) and electroporated at 120 V for 16 ms using an ECM 2001 (Harvard Apparatus). Cells were immediately transferred to complete growth medium and cultured for one week. Upon reaching confluence, polyclonal pools were plated at a density of 0.5 to 2 cells per well in 96-well plates and cultured for 3 weeks. Single colonies were transferred into 2 replica 96-well plates. […]

DLD-1 MCT-1(-) cells = assay: effect of MCT-1 loss on sensitivity: DLD-1 MCT-1(-) knock-out cells; type: cell-based, human; settings: even at 200 uM
Method: as §1

MiaPaCa-2 cells = assay: rapid induction of cell death, timed exposure and washout of MiaPaCa-2 cells; type: cell-based, human
Method: Representative pancreatic cancer cells MiaPaCa-2 (MCT-1: 163 TPM, Expression Atlas) were plated in a 96 well plate at 12,000 cells/well. These cells were then exposed to a 2-fold dilution series of sCD-3BP and free 3BP for different amounts of time (exposure time: 15 minutes, 30 minutes, 1 hour, 2 hours, 4 hours and 8 hours) and their outcome recorded by Incucyte® Live-Cell Analysis Systems, over 36 hours. After the desired timed exposure, cells were washed with PBS and fresh media was added to ensure no more drug persisted in the respective wells. […] The IC50 of both agents was calculated to be 84-90 uM when cells were exposed to the drug for only 15 minutes. […] While treated cells looked initially healthy following drug washout, cell death became discernable 24 hours post exposure.

Row | Structure (SMILES) | rescue of cells from CD-3BP mediated cytotoxicity (MCT-1) | stability / protection against degradation in sera ([1]; listed as Free 3BP) | stability / protection against degradation in sera ([1]; listed as free 3BP) | cell death (DLD-1 parental cells) | loss of viability (DLD-1 MCT-1(-) cells) | potency at killing MiaPaCa-2 cells, sCD-3BP compared with 3BP (MiaPaCa-2 cells)
1 | Cc1[nH]nc(C(F)(F)F)c1Cc1sc2c(c1C(=O)N1C[C@](C)(O)CO1)c(=O)n(C)c(=O)n2C(C)C [AZD3965] | clear dose dependent rescue |  |  |  |  | 
2 | O=C(O)C(=O)CBr [3BP, 3-bromopyruvate] |  | rapidly degraded | rapid degradation | dramatic cell death | no loss of viability | equally potent
